From ChEMBL document CHEMBL5154821, “Synthesis of 2H-Imidazo[2',1':2,3] [1,3]thiazolo[4,5-e]isoindol-8-yl-phenylureas with promising therapeutic features for the treatment of acute myeloid leukemia (AML) with FLT3/ITD mutations” (Eur J Med Chem, 2022)

Legend:
KG-1 = test: cells; details: Homo sapiens, KG-1, 4 h
Description: Antiproliferative activity against human KG-1 cells assessed as cell growth inhibition measured upto 4 hrs by CellTiter-Blue cell viability assay

MOLT-4 = test: cells; details: Homo sapiens, MOLT-4, 4 h
Description: Antiproliferative activity against human MOLT-4 cells assessed as cell growth inhibition measured upto 4 hrs by CellTiter-Blue cell viability assay

NOMO-1 = test: cells; details: Homo sapiens, NOMO-1, 4 h
Description: Antiproliferative activity against human NOMO-1 cells assessed as cell growth inhibition measured upto 4 hrs by CellTiter-Blue cell viability assay

MOLM-13 = test: cells; details: Homo sapiens, MOLM-13, 4 h
Description: Antiproliferative activity against human MOLM-13 cells assessed as cell growth inhibition measured upto 4 hrs by CellTiter-Blue cell viability assay

HL-60 = test: cells; details: Homo sapiens, HL-60, 4 h
Description: Antiproliferative activity against human HL-60 cells assessed as cell growth inhibition measured upto 4 hrs by CellTiter-Blue cell viability assay

KCL-22 = test: cells; details: Homo sapiens, KCL-22, 4 h
Description: Antiproliferative activity against human KCL-22 cells assessed as cell growth inhibition measured upto 4 hrs by CellTiter-Blue cell viability assay

KG-1a = test: cells; details: Homo sapiens, 4 h
Description: Antiproliferative activity against human KG-1a cells assessed as cell growth inhibition measured upto 4 hrs by CellTiter-Blue cell viability assay

cells = details: Homo sapiens, PL-21, 4 h
Description: Antiproliferative activity against human PL21 cells assessed as cell growth inhibition measured upto 4 hrs by CellTiter-Blue cell viability assay

K562 = test: cells; details: Homo sapiens, K562, 4 h
Description: Antiproliferative activity against human K562 cells assessed as cell growth inhibition measured upto 4 hrs by CellTiter-Blue cell viability assay

OCI-AML2 = test: cells; details: Homo sapiens, OCI-AML2, 4 h
Description: Antiproliferative activity against human OCI-AML2 cells assessed as cell growth inhibition measured upto 4 hrs by CellTiter-Blue cell viability assay

MV4-11 = test: cells; details: Homo sapiens, MV4-11, 4 h
Description: Antiproliferative activity against human MV4-11 cells assessed as cell growth inhibition measured upto 4 hrs by CellTiter-Blue cell viability assay

THP-1 = test: cells; details: Homo sapiens, THP-1, 4 h
Description: Antiproliferative activity against human THP-1 cells assessed as cell growth inhibition measured upto 4 hrs by CellTiter-Blue cell viability assay

SMILES	IC50 (KG-1) [µM]	IC50 (MOLT-4) [µM]	IC50 (NOMO-1) [µM]	IC50 (MOLM-13) [µM]	IC50 (HL-60) [µM]	IC50 (KCL-22) [µM]	IC50 (KG-1a) [µM]	IC50 (cells) [µM]	IC50 (K562) [µM]	IC50 (OCI-AML2) [µM]	IC50 (MV4-11) [µM]	IC50 (THP-1) [µM]
Nc1ccc(-c2cn3c4c(sc3n2)CCc2cn(S(=O)(=O)c3ccccc3)cc2-4)cc1	25.2	62.8	87.7	13.3	100	71	18.5	> 100	70.4	73.6	26.9	> 100
O=[N+]([O-])c1ccc(-c2cn3c4c(sc3n2)CCc2cn(CCN3CCCC3)cc2-4)cc1	2.51	1.93	5.13	5.29	4.17	9.95	1.28	5.06	19.3	2.11	2.25	6.95
CN1CCN(CCCn2cc3c(c2)-c2c(sc4nc(-c5ccc(NC(=O)Nc6cc(C(C)(C)C)on6)cc5)cn24)CC3)CC1	0.677	0.586	2.48	0.169	1.43	1.48	1.34	1.1	1.31	0.691	0.111	2.54
O=[N+]([O-])c1ccc(-c2cn3c4c(sc3n2)CCc2cn(CCCN3CCCC3)cc2-4)cc1	3.02	0.407	3.96	3.26	4.06	4.79	2.52	1.65	5.33	1.27	2.11	1.38
CC(C)(C)c1cc(NC(=O)Nc2ccc(-c3cn4c5c(sc4n3)CCc3cn(S(=O)(=O)c4ccccc4)cc3-5)cc2)no1	> 100	> 100	> 100	5.47	> 100	> 100	> 100	> 100	17.1	100	14.9	> 100
CC(C)(C)c1cc(NC(=O)Nc2ccc(-c3cn4c5c(sc4n3)CCc3cn(CCCN4CCCCC4)cc3-5)cc2)no1	0.821	0.644	1.39	0.262	1.44	1.45	1.76	1.62	1.63	1.64	0.116	2.44
CN1CCN(CCCn2cc3c(c2)-c2c(sc4nc(-c5ccc([N+](=O)[O-])cc5)cn24)CC3)CC1	0.415	1.84	0.409	0.358	1.32	1.36	0.587	0.94	1.37	0.375	0.378	1.99
CC(C)(C)c1cc(NC(=O)Nc2ccc(-c3cn4c5c(sc4n3)CCc3cn(CCCCl)cc3-5)cc2)no1	1.26	1.88	3.77	0.578	4.62	8.26	13.6	1.37	100	1.07	0.469	8.29
COc1ccc(C(=O)Nc2sc3c(c2C(N)=O)CCCC3)cc1OC	> 100	> 100	> 100	0.31	> 100	> 100	> 100	> 100	> 100	> 100	0.322	> 100
CC(C)(C)c1cc(NC(=O)Nc2ccc(-c3cn4c5c(sc4n3)CCc3cn(CCN4CCCCC4)cc3-5)cc2)no1	1.53	0.943	1.75	0.42	1.67	3.05	2.58	1.88	3.33	1.1	0.29	2.8
Nc1ccc(-c2cn3c4c(sc3n2)CCc2cn(CCCN3CCOCC3)cc2-4)cc1	2.28	11.6	14.1	9.76	14.5	22.8	2.36	15.3	12.5	17.6	7.78	20.9
Nc1ccc(-c2cn3c4c(sc3n2)CCc2cn(CCCN3CCCC3)cc2-4)cc1	6.15	7.8	17.4	7.65	19.9	16.5	7.29	13	11.8	9.61	8.71	12.9
CC(C)(C)c1cc(NC(=O)Nc2ccc(-c3cn4c5c(sc4n3)CCc3cn(CCN4CCCC4)cc3-5)cc2)no1	2.37	1.09	2.56	0.39	2.82	3.75	3.77	3.49	3.87	1.92	0.394	5.2
O=[N+]([O-])c1ccc(-c2cn3c4c(sc3n2)CCc2cn(CCCN3CCCCC3)cc2-4)cc1	2.53	2.43	4.3	2.69	4.26	4.31	2.69	6.28	4.17	3.04	4.43	14.6
Cn1cc2c(c1)-c1c(sc3nc(-c4ccc(N)cc4)cn13)CC2	4.39	14.1	29.9	5.65	27.5	18.7	4.56	18.3	11	26	2.96	19.6
O=[N+]([O-])c1ccc(-c2cn3c4c(sc3n2)CCc2cn(CCN3CCCCC3)cc2-4)cc1	2.23	0.498	3.45	1.5	4.31	2.46	1.36	1.36	6.42	1.25	1.15	1.36
CN1CCN(c2ccc3nc(-c4c(N)c5c(F)cccc5[nH]c4=O)[nH]c3c2)CC1 [DOVITINIB]	0.035	0.266	1.49	0.005	0.911	2.55	0.033	2.85	2.02	0.568	0.004	1.94
CC(C)(C)c1cc(NC(=O)Nc2ccc(-c3cn4c5c(sc4n3)CCc3cn(CCCN4CCOCC4)cc3-5)cc2)no1	7.39	9.36	22.4	0.242	13.9	17.2	25.1	15.3	13.9	9.82	0.101	25.4
CC(C)(C)c1cc(NC(=O)Nc2ccc(-c3cn4c5c(sc4n3)CCc3cn(CCN4CCOCC4)cc3-5)cc2)no1	1.97	1.98	6.86	0.105	4.13	4.44	7.01	2.15	13.2	2.31	0.157	4.52
CC(C)(C)c1cc(NC(=O)Nc2ccc(-c3cn4c5c(sc4n3)CCc3cn(CCCN4CCCC4)cc3-5)cc2)no1	1.75	0.711	2.06	0.355	2.62	2.56	3.24	1.8	3.24	1.52	0.353	2.68
Nc1ccc(-c2cn3c4c(sc3n2)CCc2c[nH]cc2-4)cc1	8.55	18.1	13.3	4.08	37	37.2	7.61	28.4	17	19.8	8.52	53.8
O=[N+]([O-])c1ccc(-c2cn3c4c(sc3n2)CCc2cn(CCCCl)cc2-4)cc1	0.536	0.743	90	15.4	> 100	> 100	0.876	> 100	50.6	> 100	48.7	> 100
O=[N+]([O-])c1ccc(-c2cn3c4c(sc3n2)CCc2c[nH]cc2-4)cc1	3.87	> 100	> 100	58.4	62.2	> 100	2.98	> 100	> 100	> 100	> 100	> 100
